Results reported in patent US20100130600A1, “LIPOPROTEIN LIPASE AND ITS EFFECT ON STATIN TREATMENTS” (CEDARS-SINAI MEDICAL CENTER, priority 2007, published 2010).

Test: Post-CABG Trial: lipid response to lovastatin therapy (baseline vs post-treatment lipid levels)
Type: in vivo, human
Method: As described herein, the inventors asked whether LPL haplotypes influence response to lipid-lowering therapy. They studied 830 subjects from the Post-Coronary Artery Bypass Graft trial, in which subjects with at least one patent saphenous vein graft were treated moderately or aggressively with lovastatin. A lipid profile was obtained at baseline and 4-5 years after treatment. 12 SNPs spanning the 3′ end of LPL were genotyped using the 5′-exonuclease (Taqman MBG) reaction. Haplotypes were constructed using the accelerated expectation maximization algorithm implemented in the program Haploview. Association with lipid response was evaluated using analysis of covariance (ANCOVA). Age, body mass index, race, current smoking status, time between CABG and study enrollment, and lovastatin treatment group were taken as covariates in the association analyses. […] Conversely, Haplotypes 6, 7, and 8 were each associated with increased HDL-C response to therapy compared to respective non-carriers. Haplotype 2 was associated with a smaller increment in triglycerides (Haplotype 2 carriers: +2.6% versus non-carriers: +11.8% change in triglycerides, P=0.02). These effects of LPL haplotypes on HDL-C and triglyceride response were independent of whether subjects were in the intensive or moderate treatment group. […] The most common haplotype, haplotype 1, was protective against graft worsening or occlusion. LPL may influence atherosclerosis risk through pleiotropic effects on each aspect of the metabolic syndrome.
This genetic association study is ancillary to the Post-Coronary Artery Bypass Graft Trial (Post-CABG Trial) (Taylor K D, Genet Med 2004, 6: 481-486; The Post Coronary Artery Bypass Graft Trial Investigators, N Engl J Med 1997, 336: 153-162). A total of 1351 subjects from seven clinical centers throughout North America were included in the clinical trial and all were eligible as participants in this genetic ancillary study. Inclusion and exclusion criteria have been previously described (The Post Coronary Artery Bypass Graft Trial Investigators, N Engl J Med 1997, 336: 153-162). Subjects were randomly assigned for treatment to lower LDL-cholesterol levels with lovastatin, aggressively (target LDL 1.55-2.20 mmol/L (60-85 mg/dL)), cholestryramine added to lovastatin if necessary to reach target) or moderately (target LDL 3.36-3.62 mmol/L (130-140 mg/dL)). For the genetic study, DNA was isolated from 903 subjects following standard protocols. Follow-up complete angiographic data, lipid values, and DNA were available from 891 of these individuals. Subjects in this genetic study were collected in the latter years of the larger Post-CABG trial.
All demographic, family history, medical history, and clinical data were collected as part of the Post-CABG Trial.14 The progression of atherosclerosis was quantitatively determined by comparison of an initial angiogram at enrollment with a follow-up angiogram repeated an average of 4.3 years later. Baseline and follow-up angiography were obtained with catheterization techniques that permitted computer-assisted quantitative measurement. An initially patent graft was defined as having progression of atherosclerosis if there was a decrease of 0.6 mm or more in lumen diameter at the site of greatest change at follow-up. Subjects with “progression of atherosclerosis” were defined as those subjects with one or more grafts showing progression. Graft occlusion was also assessed. Baseline and post-treatment lipid levels (total cholesterol, TC; LDL-cholesterol, LDL-C; HDL-cholesterol, HDL-C; and triglycerides, TG) were obtained.
The primary phenotypes analyzed for association with LPL haplotypes were: a) the progression of atherosclerosis, and b) lipid response to lovastatin therapy. Secondary analyses included association of the LPL haplotypes with baseline lipid and systolic and diastolic blood pressure (SBP and DBP) measurements. […]

[1] = 891 post-CABG subjects, mean ± SD (range)
[2] = aggressive treatment group (target LDL 60-85 mg/dL, cholestyramine added if necessary)
[3] = moderate treatment group (target LDL 130-140 mg/dL)

## CC[C@H](C)C(=O)O[C@H]1C[C@@H](C)C=C2C=C[C@H](C)[C@H](CC[C@@H]3C[C@@H](O)CC(=O)O3)[C@H]21 [lovastatin]
[1]
  HDL-C response: 13.8 ± 24.4 (−61.9-153.1) %
  LDL-C response: −25.7 ± 20.6 (−78.8-45.9) %
  Total cholesterol response: −15.3 ± 16.3 (−58.4-43.5) %
  Triglyceride response: 7.5 ± 53.0 (−81.6-330.2) %
Post-CABG trial, overall
  reduction in LDL-C: 26%
  reduction in total cholesterol (TC): 15%
[2]
  reduction in LDL-C: 37%
  reduction in total cholesterol (TC): 23%
Aggressive versus moderate treatment group
  Response in HDL-C and triglycerides (TG): did not differ between the two treatment groups
Carriers of LPL haplotype 12-1, mean ± SD
  Percent change in HDL-C: 12.6 ± 24.3 (568) %
Carriers of LPL haplotype 12-2
  change in triglycerides: +2.6%
Carriers of LPL haplotype 12-2, mean ± SD
  Percent change in HDL-C: 12.4 ± 24.5 (295) %
Carriers of LPL haplotype 12-3, mean ± SD
  Percent change in HDL-C: 14.2 ± 23.5 (262) %
Carriers of LPL haplotype 12-5, mean ± SD
  Percent change in HDL-C: 11.4 ± 25.6 (61) %
Carriers of LPL haplotype 12-6, mean ± SD
  Percent change in HDL-C: 24.8 ± 19.8 (52) %
Carriers of LPL haplotype 12-7, mean ± SD
  Percent change in HDL-C: 21.9 ± 24.1 (44) %
Carriers of LPL haplotype 12-8, mean ± SD
  Percent change in HDL-C: 23.0 ± 26.0 (43) %
[3]
  reduction in LDL-C: 14%
  reduction in total cholesterol (TC): 7%
non-carriers of LPL haplotype 12-1, mean ± SD
  Percent change in HDL-C: 15.2 ± 24.2 (261) %
non-carriers of LPL haplotype 12-2
  change in triglycerides: +11.8%
non-carriers of LPL haplotype 12-2, mean ± SD
  Percent change in HDL-C: 14.0 ± 24.2 (534) %
non-carriers of LPL haplotype 12-3, mean ± SD
  Percent change in HDL-C: 13.1 ± 24.7 (567) %
non-carriers of LPL haplotype 12-5, mean ± SD
  Percent change in HDL-C: 13.6 ± 24.2 (768) %
non-carriers of LPL haplotype 12-6, mean ± SD
  Percent change in HDL-C: 12.7 ± 24.4 (777) %
non-carriers of LPL haplotype 12-7, mean ± SD
  Percent change in HDL-C: 13.0 ± 24.3 (785) %
non-carriers of LPL haplotype 12-8, mean ± SD
  Percent change in HDL-C: 12.8 ± 24.4 (786) %
